Results on 19 compounds are retold here after ChEMBL document CHEMBL5725219, “Compounds and methods for skin repair” (2017).

Experiment [1] concerns the target Prostaglandin E2 receptor EP2 subtype (Homo sapiens, UniProt P43116). The experiment can be described thus: (§1) FLIPR Assay: Cells were seeded at a density of 5×10^4 cells per well in Biocoat® Poly-D-lysine-coated black-wall, clear-bottom 96-well plates (Becton-Dickinson) and allowed to attach overnight in an incubator at 37° C. Cells were then washed two times with HBSS-HEPES buffer (Hanks Balanced Salt Solution without bicarbonate and phenol red, 20 mM HEPES, pH 7.4) using a Denley Cellwash plate washer (Labsystems). After 45 minutes of dye-loading in the dark, using the calcium-sensitive dye Fluo-4 AM at a final concentration of […], plates were washed four times with HBSS-HEPES buffer to remove excess dye leaving […] in each well. Plates were re-equilibrated to 37° C. for a few minutes.Cells were excited with an Argon laser at 488 nm, and emission was measured through a 510-570 nm bandwidth emission filter (FLIPR™, Molecular Devices, Sunnyvale, Calif.). Drug solution was added in a 50 μl volume to each well to give the desired final concentration. The peak increase in fluorescence intensity was recorded for each well. On each plate, four wells each served as negative (HBSS-HEPES buffer) and positive controls (standard agonists: BW245C (hDP); PGE2 (hEP1; hEP2/Gqs5; hEP3A/Gqi5; hEP4/Gqs5); PGF2a (hFP); carbacyclin (hIP); U-46619 (hTP), depending on receptor). The peak fluorescence change in each drug-containing well was then expressed relative to the controls.

The target of experiment [2] is T1, Prostaglandin E2 receptor EP4 subtype (Homo sapiens, UniProt P35408). Described as §1.
T1 sequence (P35408 whole entry): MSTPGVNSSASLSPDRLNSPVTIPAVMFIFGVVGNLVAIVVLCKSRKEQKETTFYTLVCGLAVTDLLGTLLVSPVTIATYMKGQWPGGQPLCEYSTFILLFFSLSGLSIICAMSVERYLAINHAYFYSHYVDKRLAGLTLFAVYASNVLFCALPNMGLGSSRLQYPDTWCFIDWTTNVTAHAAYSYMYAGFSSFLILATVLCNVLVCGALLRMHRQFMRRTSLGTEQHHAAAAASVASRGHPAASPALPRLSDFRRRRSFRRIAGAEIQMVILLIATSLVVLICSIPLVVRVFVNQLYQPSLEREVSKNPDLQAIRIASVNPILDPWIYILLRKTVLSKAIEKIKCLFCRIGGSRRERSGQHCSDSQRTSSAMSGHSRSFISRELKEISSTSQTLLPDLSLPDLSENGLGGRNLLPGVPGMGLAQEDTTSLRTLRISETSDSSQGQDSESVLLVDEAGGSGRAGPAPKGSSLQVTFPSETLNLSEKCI
Experiment [3] deals with T1, Prostaglandin E2 receptor EP4 subtype. The experiment can be described thus: Radioligand Binding Assay: HEK-293 cells stably expressing the human or feline FP receptor, or EP1, EP2, or EP4 receptors were washed with TME buffer, scraped from the bottom of the flasks, and homogenized for 30 sec using a Brinkman PT 10/35 polytron. TME buffer was added to achieve a final 40 ml volume in the centrifuge tubes (the composition of TME is 100 mM TRIS base, 20 mM MgCl2, […]; 10N HCl is added to achieve a pH of 7.4).The cell homogenate was centrifuged at 19000 r.p.m. for 20 min at 4° C. using a Beckman Ti-60 rotor. The resultant pellet was resuspended in TME buffer to give a final 1 mg/ml protein concentration, as determined by Biorad assay. Radioligand binding competition assays vs. [3H-]17-phenyl PGF2a (5 nM) were performed in a 100 μl volume for 60 min. Binding reactions were started by adding plasma membrane fraction. The reaction was terminated by the addition of 4 ml ice-cold TRIS-HCl buffer and rapid filtration through glass fiber GF/B filters using a Brandel cell harvester. The filters were washed 3 times with ice-cold buffer and oven dried for one hour.[3H] PGE2 (specific activity 180 Ci mmol) was used as the radioligand for EP receptors. [3H] 17-phenyl PGF2a was employed for FP receptor binding studies. Binding studies employing EP1, EP2, EP4 and FP receptors were performed in duplicate in at least three separate experiments. A 200 μl assay volume was used. […].

Bounds are passed on as bounds.

Sequence of Prostaglandin E2 receptor EP2 subtype (P43116 whole entry): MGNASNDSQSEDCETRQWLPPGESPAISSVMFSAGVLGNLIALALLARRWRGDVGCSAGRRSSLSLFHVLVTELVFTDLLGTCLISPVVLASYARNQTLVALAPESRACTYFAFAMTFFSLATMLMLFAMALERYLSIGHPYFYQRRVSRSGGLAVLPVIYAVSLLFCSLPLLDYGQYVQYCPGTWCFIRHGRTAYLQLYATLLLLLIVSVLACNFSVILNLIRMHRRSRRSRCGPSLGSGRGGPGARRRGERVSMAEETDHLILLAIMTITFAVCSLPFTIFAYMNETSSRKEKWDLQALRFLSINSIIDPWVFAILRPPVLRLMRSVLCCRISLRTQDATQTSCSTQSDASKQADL

On to `COc1cc(OC)cc(C(=O)N2CCc3cccc(CCc4ccc(C(=O)O)cc4)c32)c1`, for which, in experiment [1], the EC50 was found to be 183 nM and the inhibitory constant (Ki) stood at 821 nM. Also, the inhibition constant (Ki) in experiment [2] turned out to be 4860 nM.
In the case of `COc1cc(CN2CCc3cc(F)cc(CCc4ccc(C(=O)O)cc4)c32)cc(OC)c1`, the inhibition constant Ki in experiment [1] was 14 nM; in experiment [2] it was 2 nM. The concentration for a half-maximal effect (EC50) in experiment [2] was 2 nM.
Take `COc1cccc(CN2CCc3cccc(CCc4ccc(C(=O)O)cc4)c32)c1`: the inhibition constant (Ki) in experiment [1] stood at 23 nM. In experiment [2], the half-maximal effective concentration (EC50) turned out to be 178 nM and the Ki is 123 nM.
The corresponding values for `O=C(O)c1ccc(CCc2cccc3c2N(CCc2ccccc2)CC3)cc1` are 202 nM, 1580 nM and 1090 nM.
Taken in the same sequence, the figures for `COc1cccc(CCN2CCc3cccc(CCc4ccc(C(=O)O)cc4)c32)c1` were 41 nM, 1260 nM and 373 nM.
The corresponding values for `COc1cccc(S(=O)(=O)N2CCc3cccc(CCc4ccc(C(=O)O)cc4)c32)c1` are 571 nM, greater than 10000 nM and greater than 10000 nM.
With `COc1cccc(CN2Cc3cccc(CCc4ccc(C(=O)O)cc4)c3C2)c1`, the results for the Ki in experiment [1] and in experiment [2] were 6880 nM and 9560 nM, respectively. In experiment [2], the EC50 is greater than 10000 nM.
`COc1cc(CO)cc(S(=O)(=O)N2CCc3cccc(CCc4ccc(C(=O)O)cc4)c32)c1`: the EC50 in experiment [2] is greater than 10000 nM.
Regarding `COc1cccc(Cn2ccc3cccc(CCc4ccc(C(=O)O)cc4)c32)c1`, the values for the inhibition constant (Ki) in experiment [1] and in experiment [2] were 259 nM and 1680 nM, respectively. The EC50 in experiment [2] was 1620 nM.
Consider `O=C(O)c1ccc(CCc2cccc3c2N(Cc2ccc(F)cc2)CC3)cc1`, for which, in experiment [1], the EC50 worked out at 29 nM and the inhibition constant Ki amounted to 14 nM. Moreover, in experiment [2], the half-maximal effective concentration (EC50) turned out to be 450 nM and the Ki is 616 nM.
The corresponding values for `O=C(O)c1ccc(CCc2cccc3c2N(Cc2cc(F)cc(F)c2)CC3)cc1` are 12 nM, 12 nM, 205 nM and 412 nM.
For the compound `O=C(O)c1ccc(CCc2cccc3c2N(Cc2cc(C(F)(F)F)cc(C(F)(F)F)c2)CC3)cc1`, in experiment [1], the 50% effective concentration (EC50) was 11 nM and the Ki is 0.3 nM. Also, in experiment [2], the inhibitory constant (Ki) is 1200 nM.
Consider `COc1cccc(CN2CCc3cccc(CCc4ccc(C(=O)O)s4)c32)c1`, for which the results for the Ki in experiment [1] and in experiment [2] were 50 nM and 714 nM, respectively.
For the compound `COc1cccc(CC(=O)N2CCc3cccc(CCc4ccc(C(=O)O)cc4)c32)c1`, the inhibition constant Ki in experiment [1] is greater than 10000 nM. Further, in experiment [2], the EC50 is greater than 10000 nM and the inhibition constant (Ki) is 449 nM.
With `O=C(O)c1ccc(CCc2cccc3c2N(Cc2cccc(C(F)(F)F)c2)CC3)cc1`, the concentration giving a half-maximal response (EC50) in experiment [1] worked out at 15 nM; in experiment [2] it was 187 nM. The Ki in experiment [1] stood at 7 nM; in experiment [2] it was 424 nM.
For `COc1cc(CO)cc(CN2CCc3cccc(CCc4ccc(C(=O)O)s4)c32)c1`, the inhibition constant (Ki) in experiment [3] worked out at 154 nM.
For the compound `O=C(O)c1ccc(CCc2cccc3c2N(Cc2cccc(F)c2)CC3)cc1`, in experiment [1], the concentration for a half-maximal effect (EC50) stood at 35 nM and the inhibition constant Ki was 38 nM. For the same compound, in experiment [2], the concentration giving a half-maximal response (EC50) came to 123 nM and the inhibition constant Ki stood at 897 nM.
`COc1cc(OC)cc(N2Cc3cccc(CCc4ccc(C(=O)O)cc4)c3C2)c1`: the Ki in experiment [2] was found to be 3900 nM.
Regarding `COc1cccc(CCN2Cc3cccc(CCc4ccc(C(=O)O)cc4)c3C2)c1`, the Ki is 1130 nM in experiment [1] and greater than 10000 nM in experiment [2]. Moreover, the concentration giving a half-maximal response (EC50) in experiment [2] is greater than 10000 nM.

Usually EC50 stands for the midpoint of the concentration-response curve. By Ki is commonly meant a dissociation constant, usually derived from enzyme kinetics or from competition with a known ligand.
